Test results as given in patent publication US10413505B1, “Pharmaceutical compositions and methods of using the same” (priority 2017, dated 2019).
Structures can show the parent of a compound that is named as a salt. Where two headings read alike, the source gives them in different places.

Tests used:
[1] = tested on: subjects undergoing diagnostic procedures and surgeries on or through the mucous membranes of the nasal cavities
Source text: Example 8 was a randomized, prospective, double-blind, multicenter, single-dose, placebo and dose-controlled, parallel-group study to evaluate the safety of the 4% and 8% cocaine hydrochloride pharmaceutical compositions as described in Example 4 used as a local anesthetic for diagnostic procedures and surgeries on or through the mucous membranes of the nasal cavities (e.g., nasal/sinus endoscopy, sinusotomy, fracture nasal turbinate(s), lysis intranasal synechia, insertion of nasal septal prosthesis, intranasal biopsy, excision of nasal polyps, excision turbinate(s), removal of an intranasal foreign body, septoplasty, or sinus debridement). […] The study consisted of a screening period within 14 days of a diagnostic procedure or surgery; a treatment period on the day of the diagnostic procedure or surgery (Day 1); and a follow-up visit (Day 8).
Two saturated pledgets were placed into each nasal cavity and up against the septum for 20 minutes. After 20 minutes the pledgets were removed from the subjects.
To address the potential for the impact of body weight on efficacy and safety, the study conducted the following additional analyses: • Analysis of efficacy (primary endpoint) for 2 subgroups of low weight subjects: <50 kg and <60 kg (see Table 53) • Analysis of safety (AEs) for 2 subgroups of low weight subjects: <50 kg and <60 kg (see Table 54) • Analysis of safety (AEs) for 2 subgroups of subjects based on dose determined on a mg/kg basis (regardless of 4% or 8% dose): ≤3 mg/kg or >3 mg/kg) (Table 55) Note: There is overlap between the body weight groups examined because the <60 kg group has no lower limit of weight.

Sprague Dawley rats [2] = test: Example 10 cocaethylene HCl intranasal toxicity, Single-Dose Phase; format: in vivo, rat
Procedure: Cocaethylene HCl in the vehicle (deionized water) was administered by intranasal instillation once to a group (Group 2) of Sprague Dawley rats at a dose level of 2.1 mg/kg. […] The dose volume was 0.22 mL/kg, divided between the 2 nares, for both groups. Groups 1 and 2 each consisted of 20 animals/sex. Following dose administration, 10 animals/sex/group were euthanized on Study Day 1; the remaining 10 animals/sex/group were euthanized following a 14-day non-dosing (recovery) period. Criteria for evaluation included daily mortality observations, daily clinical observations, detailed physical observations, body weights, food consumption, clinical pathology (hematology, coagulation, serum chemistry, and urinalysis), organ weights, gross pathology, and microscopic examination of select tissues.
(§1) The vehicle and test article formulations were administered by intranasal instillation into each naris via a syringe equipped with stainless steel-shafted, stainless steel ball-tipped dosing cannula once (Single-Dose Phase) or once daily for 14 consecutive days (Repeat-Dose Phase), through the day prior to the primary necropsy. The same syringe and dosing cannula was used to administer the dose across both nares for a given animal on a given dosing day. The total dose volume administered per dose was split approximately equally across each naris, such that approximately half of the total dose volume was administered into one naris, and the remaining was administered into the other naris. Treatment administration across each naris for an individual animal occurred at approximately the same time. The dose volume for all groups was 0.22 mL/kg. Individual doses were based on the most recently recorded body weights. Adjusted doses became effective the day of collection of the weekly body weights. The first day of dosing was Study Day 0; the first week of dosing was Study Week 0.
(§2) All animals were observed twice daily, once in the morning and once in the afternoon, for mortality and moribundity.
(§3) Clinical examinations were performed at the time of dose administration and 1 to 2 hours following dose administration. During the recovery period, the animals were observed once daily. The absence or presence of findings was recorded for individual animals at the scheduled intervals. For the Single-Dose Phase, detailed physical examinations were conducted on all animals within 4 days of receipt, on the day of randomization, and on Study Days 0, 1, 7, and 14. For the Repeat-Dose Phase, detailed physical examinations were conducted on all animals within 4 days of receipt, on the day of randomization, weekly (±2 days) during the study period, and on the day of the scheduled necropsies. Daily observations during the recovery period were not necessary on days when detailed physical examinations were conducted.
(§4) Individual body weights were recorded within 4 days of receipt, on the day of randomization, Study Day 0 (prior to dosing), weekly (±2 days) during the study period, and on the day prior to the scheduled necropsies (nonfasted). Mean body weights and mean body weight changes were calculated for the corresponding intervals. Final body weights (fasted) were recorded on the day of the scheduled necropsies.
(§5) Cage food weights were recorded once weekly (±2 days) beginning following randomization and throughout the study period. Food consumption was calculated as g/animal/day for the corresponding body weight intervals.
(§6) Blood and urine samples for clinical pathology evaluations (hematology, coagulation, serum chemistry, and urinalysis) were collected from all animals assigned to the scheduled necropsies. The animals were fasted overnight prior to blood collection while in metabolism cages for urine collection. Blood was collected from a jugular vein and from the vena cava at the time of necropsy. Blood was collected into tubes containing potassium K2EDTA (hematology), sodium citrate (coagulation), or no anticoagulant (serum chemistry). […]

Sprague Dawley rats [3] = test: Example 10 cocaethylene HCl intranasal toxicity, Repeat-Dose Phase; format: in vivo, rat
Procedure: Cocaethylene hydrochloride in the vehicle was administered by intranasal instillation once daily for 14 days to a group (Group 2) of Sprague Dawley rats at a dosage level of 2.1 mg/kg/day. […] The dose volume was 0.22 mL/kg, divided between the 2 nares, for both groups. Groups 1 and 2 each consisted of 15 animals/sex. Following 14 days of dose administration, 10 animals/sex/group were euthanized; the remaining […] animals/sex/group were euthanized following a 14-day nondosing (recovery) period. Criteria for evaluation included daily mortality observations, daily clinical observations, detailed physical observations, body weights, food consumption, clinical pathology (hematology, coagulation, serum chemistry, and urinalysis), organ weights, gross pathology, and microscopic examination of select tissues.
as §1, §2, §3, §4, §5, §6

[4] = 2.1 mg/kg once, intranasal instillation
[5] = 2.1 mg/kg/day for 14 days, intranasal instillation

COC(=O)[C@H]1[C@@H](OC(=O)c2ccccc2)C[C@@H]2CC[C@H]1N2C [Cocaine HCl]
Adverse events: Anxiety ([1]; >3% mg/kg): 2 (0.8) n (%)
Adverse events: Dermatitis allergic ([1]; >3% mg/kg): 1 (0.4) n (%)
Adverse events: Dizziness ([1]; >3% mg/kg): 1 (0.4) n (%)
Adverse events: Dysphonia ([1]; >3% mg/kg): 0 n (%)
Adverse events: Epistaxis ([1]; >3% mg/kg): 2 (0.8) n (%)
Adverse events: Eye disorders ([1]; >3% mg/kg): 1 (0.4) n (%)
Adverse events: Facial pain ([1]; >3% mg/kg): 1 (0.4) n (%)
Adverse events: Fatigue ([1]; >3% mg/kg): 0 n (%)
Adverse events: Foreign body sensation in eyes ([1]; >3% mg/kg): 1 (0.4) n (%)
Adverse events: Gastrointestinal disorders ([1]; >3% mg/kg): 1 (0.4) n (%)
Adverse events: General disorders and administration site conditions ([1]; >3% mg/kg): 1 (0.4) n (%)
Adverse events: Headache ([1]; >3% mg/kg): 4 (1.6) n (%)
Adverse events: Hypertension ([1]; >3% mg/kg): 0 n (%)
Adverse events: Injury, poisoning and procedural complications ([1]; >3% mg/kg): 1 (0.4) n (%)
Adverse events: Lip swelling ([1]; >3% mg/kg): 1 (0.4) n (%)
Adverse events: Masculoskeletal and connective tissue disorders ([1]; >3% mg/kg): 1 (0.4) n (%)
Adverse events: Medication error ([1]; >3% mg/kg): 1 (0.4) n (%)
Adverse events: Nasal congestion ([1]; >3% mg/kg): 1 (0.4) n (%)
Adverse events: Nausea ([1]; >3% mg/kg): 0 n (%)
Adverse events: Neck pain ([1]; >3% mg/kg): 1 (0.4) n (%)
Adverse events: Nervous system disorders ([1]; >3% mg/kg): 5 (2.0) n (%)
Adverse events: Psychiatric disorders ([1]; >3% mg/kg): 2 (0.8) n (%)
Adverse events: Respiratory, thoracic and mediastinal disorders ([1]; >3% mg/kg): 3 (1.2) n (%)
Adverse events: Rhinorrhea ([1]; >3% mg/kg): 0 n (%)
Adverse events: Skin and subcutaneous tissue disorders ([1]; >3% mg/kg): 2 (0.8) n (%)
Adverse events: Sneezing ([1]; >3% mg/kg): 0 n (%)
Adverse events: Upper-airway cough syndrome ([1]; >3% mg/kg): 0 n (%)
Adverse events: Vascular disorders ([1]; >3% mg/kg): 0 n (%)
Adverse events: Vision blurred ([1]; >3% mg/kg): 0 n (%)
Any AE ([1]; >3% mg/kg): 14 (5.7) n (%)
Adverse events: Cold sweat ([1]; >3% mg/kg, under General disorders and administration site conditions): 0 n (%)
Adverse events: Cold sweat ([1]; >3% mg/kg, under Skin and subcutaneous tissue disorders): 1 (0.4) n (%)
Adverse events: Anxiety ([1]; ≤3 mg/kg): 0 n (%)
Adverse events: Dermatitis allergic ([1]; ≤3 mg/kg): 0 n (%)
Adverse events: Dizziness ([1]; ≤3 mg/kg): 1 (0.3) n (%)
Adverse events: Dysphonia ([1]; ≤3 mg/kg): 1 (0.3) n (%)
Adverse events: Epistaxis ([1]; ≤3 mg/kg): 3 (1.0) n (%)
Adverse events: Eye disorders ([1]; ≤3 mg/kg): 1 (0.3) n (%)
Adverse events: Facial pain ([1]; ≤3 mg/kg): 0 n (%)
Adverse events: Fatigue ([1]; ≤3 mg/kg): 1 (0.3) n (%)
Adverse events: Foreign body sensation in eyes ([1]; ≤3 mg/kg): 0 n (%)
Adverse events: Gastrointestinal disorders ([1]; ≤3 mg/kg): 1 (0.3) n (%)
Adverse events: General disorders and administration site conditions ([1]; ≤3 mg/kg): 2 (0.7) n (%)
Adverse events: Headache ([1]; ≤3 mg/kg): 7 (2.3) n (%)
Adverse events: Hypertension ([1]; ≤3 mg/kg): 1 (0.3) n (%)
Adverse events: Injury, poisoning and procedural complications ([1]; ≤3 mg/kg): 0 n (%)
Adverse events: Lip swelling ([1]; ≤3 mg/kg): 0 n (%)
Adverse events: Masculoskeletal and connective tissue disorders ([1]; ≤3 mg/kg): 0 n (%)
Adverse events: Medication error ([1]; ≤3 mg/kg): 0 n (%)
Adverse events: Nasal congestion ([1]; ≤3 mg/kg): 0 n (%)
Adverse events: Nausea ([1]; ≤3 mg/kg): 1 (0.3) n (%)
Adverse events: Neck pain ([1]; ≤3 mg/kg): 0 n (%)
Adverse events: Nervous system disorders ([1]; ≤3 mg/kg): 7 (2.3) n (%)
Adverse events: Psychiatric disorders ([1]; ≤3 mg/kg): 0 n (%)
Adverse events: Respiratory, thoracic and mediastinal disorders ([1]; ≤3 mg/kg): 6 (2.0) n (%)
Adverse events: Rhinorrhea ([1]; ≤3 mg/kg): 1 (0.3) n (%)
Adverse events: Skin and subcutaneous tissue disorders ([1]; ≤3 mg/kg): 0 n (%)
Adverse events: Sneezing ([1]; ≤3 mg/kg): 1 (0.3) n (%)
Adverse events: Upper-airway cough syndrome ([1]; ≤3 mg/kg): 0 n (%)
Adverse events: Vascular disorders ([1]; ≤3 mg/kg): 1 (0.3) n (%)
Adverse events: Vision blurred ([1]; ≤3 mg/kg): 1 (0.3) n (%)
Any AE ([1]; ≤3 mg/kg): 13 (4.3) n (%)
Adverse events: Cold sweat ([1]; ≤3 mg/kg, under General disorders and administration site conditions): 1 (0.3) n (%)
Adverse events: Cold sweat ([1]; ≤3 mg/kg, under Skin and subcutaneous tissue disorders): 0 n (%)

CCOC(=O)[C@@H]1C2CCC(C[C@@H]1OC(=O)c1ccccc1)N2C (stereo partly shown) [cocaethylene HCl, cocaethylene hydrochloride]
body weights (Sprague Dawley rats [2]; [4]): unaffected
clinical observations (Sprague Dawley rats [2]; [4]): no test article-related clinical observations
food consumption (Sprague Dawley rats [2]; [4]): unaffected
hematology and coagulation parameters (Sprague Dawley rats [2]; [4]): unaffected
macroscopic examination at necropsy (Sprague Dawley rats [2]; [4]): no test article-related macroscopic findings
organ weights (Sprague Dawley rats [2]; [4]): unaffected
serum chemistry parameters (Sprague Dawley rats [2]; [4]): unaffected
survival (Sprague Dawley rats [2]; [4]): All animals survived
urinalysis parameters (Sprague Dawley rats [2]; [4]): unaffected
microscopic examination (nasal cavity with turbinates) (Sprague Dawley rats [2]; 2.1 mg/kg once, intranasal instillation, also after 14-day recovery): No test article-related microscopic findings
pH of the dosing formulation (Sprague Dawley rats [2]; Single-Dose Phase, 9.6 mg/mL in deionized water, pH meter): 2.81
tolerability (Sprague Dawley rats [3]; 2.1 mg/kg once or once daily for 14 days, intranasal instillation): well tolerated
body weights (Sprague Dawley rats [3]; [5]): unaffected
clinical observations (Sprague Dawley rats [3]; [5]): no test article-related clinical observations
food consumption (Sprague Dawley rats [3]; [5]): unaffected
hematology and coagulation parameters (Sprague Dawley rats [3]; [5]): unaffected
macroscopic examination at necropsy (Sprague Dawley rats [3]; [5]): no test article-related macroscopic findings
organ weights (Sprague Dawley rats [3]; [5]): unaffected
serum chemistry parameters (Sprague Dawley rats [3]; [5]): unaffected
survival (Sprague Dawley rats [3]; [5]): All animals survived
urinalysis parameters (Sprague Dawley rats [3]; [5]): unaffected
microscopic examination (nasal cavity with turbinates) (Sprague Dawley rats [3]; 2.1 mg/kg/day for 14 days, intranasal instillation, also after 14-day recovery): No test article-related microscopic findings
pH of the dosing formulation (Sprague Dawley rats [3]; Repeat-Dose Phase, 9.6 mg/mL in deionized water, pH meter): 2.81
no-observed-effect level (NOEL) (Sprague Dawley rats [3]; intranasal instillation once or once daily for 14 days): 2.1 mg/kg/day
